Entries after “also recorded” stand apart in the source; their conditions may differ. Blank lines part the entries; values can stand above or below the compound they belong to.
Experiments:
[1] = tested on: subcutaneous xenografts of human breast cancer MCF-7 cell; assay: In vivo pharmacodynamic study, subcutaneous MCF-7 xenograft model; design: species or system nude BALB/c mice
Protocol: Experimental objective: to study the in vivo efficacy of the compound to be tested on subcutaneous xenografts of human breast cancer MCF-7 in nude BALB/c mice model.
Experimental animals: female BALB/C nude mice, 6-8 weeks old, weighing 18-22 g; Supplier: Shanghai Xipur Bikai Experimental Animal Co., Ltd.
Human breast cancer MCF-7 cells (ECACC, item number: 86012803) were cultured in monolayer in vitro. The culture conditions were EMEM (EBSS)+2 mM […]+1% Non Essential Amino Acids (NEAA) medium plus 10% fetal bovine serum, 100 U/mL penicillin and 100 μg/mL streptomycin, incubated in 5% CO2 incubator at 37° C. Cells were passaged through routine digestion using Trypsin EDTA twice a week. When the cell saturation was 80%-90% and the number reached the requirements, cells were collected, counted and inoculated. […]
The experimental index is used for investigating whether tumor growth is inhibited, delayed or cured. The tumor diameter was measured with a vernier caliper twice a week. […]
The antitumor effect of the compound was evaluated by TGI (%) or relative tumor proliferation rate T/C(%). […]
Relative tumor proliferation rate T/C (%): the calculation formula is as follows: T/C %=TRTV/CRTV (TRTV:RTV in treatment group; CRTV:RTV in negative control group). The relative tumor volume (RTV) is calculated according to the results of tumor measurement. […]

mTOR kinase = target: T1, mTOR kinase (Homo sapiens, UniProt P42345); assay: mTOR kinase inhibitory activity in vitro (discoverx ligand-bead competition binding, qPCR)
T1 construct: purchased discoverx; host or cells: HEK-293
Protocol: This experiment was tested on discoverx, and all materials and methods were from discoverx.
1. The labeled mTOR kinase was stably expressed in HEK-293 cells.
2. Streptavidin magnetic beads were treated with biotinylated small molecule ligands for 30 minutes at room temperature to produce an affinity resin for kinase analysis;
3. The ligand beads were blocked with excess biotin and washed with buffer (1% bovine serum albumin, 20 […] of dithiothreitol) to wash off unbound ligands and nonspecifically bound ligands;
5. The test compound was dissolved in dimethyl sulfoxide;
6. All compounds used for measurement were dissolved in DMSO and then diluted directly to a concentration of 0.9%;
7. The solution was placed on 384 well polypropylene plates with a volume of 0.02 mL of each well;
8. The plate was shaked at room temperature for 1 hour;
9. The plate was washed with buffer (1× PBS, 0.05% Tween 20);
10. Affinity beads were resuspended in buffer (1× PBS, 0.05% Tween 20, 0.5 μM nonbiotin-affinity ligands) and incubated at room temperature for 30 minutes;
11. The kinase in eluent was measured for its concentration by qPCR.

N87 cells = assay: Cell proliferation inhibitory activity (Cell-Titer-Glo), N87; format: cell-based
Protocol: (§1) Objective: the inhibitory activity of the compound to be tested was tested on cell proliferation.
(§2) Experimental principle: Luciferase in Cell-Titer-Glo reagent uses luciferin, oxygen and ATP as reaction substrates to produce oxidized luciferin and release energy in the form of light. Since ATP is required for luciferase reaction, the total amount of light produced by the reaction is directly proportional to the total amount of ATP in response to cell viability.
(§3) Cell lines: MCF-7 cell line (ATCC-CRL-22), HT-29 cell line (ATCC-HTB-38), OE21 (ECACC-96062201), NCI-N87 cell line (ATCC-CRL-5822)
(§4) Cell Titer-Glo® Luminescent cell viability test kit (Promega #G7573)
(§5) According to the schematic diagram of cell seed plate, 384 or 96 well plate was seeded based on 1000 cells per well with a density of 25 μL per well, and the edge well was supplemented with 25 μL PBS, instead of cells.
(§6) (1) The mother liquor of the compound was 10 mM, and the compound was diluted with DMSO to obtain its initial concentration of 4 mM. The compound was added into the mother liquor plate with 9 μL per well. […]
(§7) The cell plate was taken from the incubator and balanced at room temperature for 30 minutes. […] After 10 minutes, the plate reading was performed on PerkinElmer envision with setting the […] reading time of 0.2 seconds.

MCF-7 cells = assay: Cell proliferation inhibitory activity (Cell-Titer-Glo), MCF-7; format: cell-based, human
Protocol: as §1, §2, §3, §4, §5, §6, §7

[2] = Pharmacokinetic evaluation in plasma of mice (IV and PO); format: in vivo, BALB/C female mice; details: mouse
Protocol: The tested compound was mixed with 5% DMSO/95% 10% polyoxyethylene castor oil (Cremophor EL) followed by vortex and ultrasonic treatment to prepare 1 mg/mL approximate clear solution, which was filtered by microporous membrane before used. BALB/C female mice of 18 to 20 g were injected with the compound solution intravenously at a dose of 1 or 2 mg/kg. The tested compound was mixed with 1% Tween […], 90% aqueous solution followed by vortex and ultrasonic treatment to prepare 1 mg/mL approximate clear solution, which was filtered by microporous membrane before used. BALB/C female mice of 18 to 20 g were given the candidate compound solution orally at a dose of 2 or 10 mg/kg. Whole blood was collected for a certain time to prepare plasma. The medicament was analyzed for its concentration by LC-MS/MS, and the pharmacokinetic parameters were calculated by Phoenix winnonlin software (pharsight company).

[3] = Solid stability test under long-term and accelerated conditions (XRPD); format: physicochemical
Protocol: Each sample was put into a double-layer LDPE Bag with each layer buckled and sealed respectively, and then the LDPE Bag was put into an aluminum foil bag and heat sealed. The samples were investigated for XRPD under the conditions of 25° C./60% RH (14 bags), 30° C./65% RH (10 bags) and 40° C./75% RH (10 bags). The test results were compared with the initial test results of 0 days.

[4] = Dynamic vapor sorption (DVS) hygroscopicity study; format: physicochemical; details: 25.6° C. and 80% RH
Protocol: Instrument model: SMS DVS Advantage dynamic vapour adsorbent device
Test conditions: taking the sample (10-15 mg) and putting it into a DVS sample tray for test.
Detailed DVS parameters are as follows:
Balance: dm/dt=0.01%/min (minimum: 10 min, maximum: 180 min)
RH(%) test step range: 0%-90%-0% RH (%)
The evaluation of moisture absorption is classed as follows:
DVS Advantage dynamic vapour adsorbent device

Compound: CNC(=O)c1cccc(-c2ccc3c(N4CCOC[C@@H]4C)nc(N4CCOC[C@@H]4C)nc3n2)c1 [AZD2014, reference compound]
RTV (day 27) ([1]; 15 mg/kg): 0.85 ± 0.26

bioavailability ([2]; female, BALB/C, plasma, 10 mg/kg, oral administration): ~100%
Compound: C[C@H]1COCCN1c1nc(N2CCOC3(CC3)C2)nc2nc(-c3cccc(C(N)=O)c3)ccc12 [Compound of formula (I)]
mTOR kinase inhibitory activity (in words) (mTOR kinase): significant or even unexpected mTOR kinase inhibitory activity, which is better than the current clinical compound AZD2014
inhibitory activity on proliferation of N87 cells (in words) (N87 cells): obvious inhibitory activity
efficacy in MCF-7 Xenograft tumor model compared with AZD2014 (in words) ([1]; mouse, in vivo): equivalent to that of AZD2014; also recorded: comparable to AZD2014
inhibitory activity on proliferation of MCF-7 cells (in words) (MCF-7 cells): obvious inhibitory activity
pharmacokinetic properties compared with the reference compound (in words) [2]: the same or even better pharmacokinetic properties as the reference compound

Crystal form (XRPD) ([3]; 25° C./60% RH, 3 months): Crystal form A
Crystal form (XRPD) ([3]; 25° C./60% RH, 6 months): Crystal form A
Crystal form (XRPD) ([3]; 40° C./75% RH, 3 months): Crystal form A
Crystal form (XRPD) ([3]; 40° C./75% RH, 6 months): Crystal form A
Crystal form (XRPD) ([3]; Day 0 (initial)): Crystal form A
solid stability (in words) ([3]; high temperature, high humidity and strong light): good stability
hygroscopicity (classification) [4]: without hygroscopicity
ΔW % (hygroscopic weight gain) [4]: < 0.2%
Compound: C[C@H]1COCCN1c1nc(N2CCOC3(CC3)C2)nc2nc(-c3cccc(C(N)=O)c3)ccc12

— patent US20220306622A1, “SALT AND CRYSTAL FORM OF MTORC1/2 DUAL KINASE ACTIVITY INHIBITOR AND PREPARATION METHOD THEREFOR” (MEDSHINE DISCOVERY INC., priority 2019, published 2022)
